Among the data in patent US11802111B2, “Cyclobutyl amide monoacylglycerol lipase modulators” (Janssen Pharmaceutica NV, priority 2020, dated 2023) are IC50 values, retold here.

Chain of human MGL from HeLa cells (Q99685 whole entry): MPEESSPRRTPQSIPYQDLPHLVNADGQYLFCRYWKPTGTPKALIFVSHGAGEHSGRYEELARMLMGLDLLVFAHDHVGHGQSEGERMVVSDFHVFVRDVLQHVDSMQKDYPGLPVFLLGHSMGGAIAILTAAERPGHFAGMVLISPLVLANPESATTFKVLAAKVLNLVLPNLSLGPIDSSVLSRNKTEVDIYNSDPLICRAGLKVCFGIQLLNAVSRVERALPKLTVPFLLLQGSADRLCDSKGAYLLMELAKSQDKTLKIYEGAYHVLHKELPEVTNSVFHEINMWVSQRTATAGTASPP

For the assay, the target named is human MGL from HeLa cells (Homo sapiens (Human), UniProt Q99685). Briefly: MGL in vitro activity assay ([glycerol-1,3-3H]-oleoyl glycerol hydrolysis, activated carbon filtration). The class given is biochemical. To be noted: 300 nM [Glycerol-1,3-3H]-oleoyl glycerol, one hour. An outline of the steps:
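Activity measured as tritium in the flow-through after activated carbon filtration of a 1 h reaction containing 300 nM 3H-oleoyl glycerol, compound and HeLa-derived human MGL. Compounds screened at 10 μM; IC50 series start at an empirically chosen highest concentration.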
In turn, `C[C@]1(O)C[C@@H](C(=O)N2CC3(CCC(c4cccn5ccnc45)C3)C2)C1` (mixture of isomers) [Example 327, (rac)-((1s,3s)-3-Hydroxy-3-methylcyclobutyl)(6-(imidazo[1,2-c]pyridin-8-yl)-2-azaspiro[3.4]octan-2-yl)methanone] displayed an IC50 of 3090 nM.
As for `C[C@]1(O)C[C@@H](C(=O)N2CC3(CCC(c4ccn5ccnc5c4)C3)C2)C1` (mixture of isomers) [Example 328, (rac)-((1s,3s)-3-Hydroxy-3-methylcyclobutyl)(6-(imidazo[1,2-a]pyridin-7-yl)-2-azaspiro[3.4]octan-2-yl)methanone], the figure is 3710 nM.
As for `C[C@]1(O)C[C@@H](C(=O)N2CC3(CCC(c4ncn5ccccc45)C3)C2)C1` (mixture of isomers) [Example 329, (rac)-((1s,3s)-3-Hydroxy-3-methylcyclobutyl)(6-(imidazo[1,5-a]pyridin-1-yl)-2-azaspiro[3.4]octan-2-yl)methanone], the figure is 683 nM; as for `C[C@]1(O)C[C@@H](C(=O)N2CC3(CCC(c4ncn5c4CCCC5)C3)C2)C1` (mixture of isomers) [Example 330, (rac)-((1s,3s)-3-Hydroxy-3-methylcyclobutyl)(6-(5,6,7,8-tetrahydroimidazo[1,5-a]pyridin-1-yl)-2-azaspiro[3.4]octan-2-yl)methanone], 2380 nM; as for `C[C@]1(O)C[C@@H](C(=O)N2CC3(CCC(c4cc5n(n4)CCCC5)C3)C2)C1` (mixture of isomers) [Example 331, (rac)-((1s,3s)-3-Hydroxy-3-methylcyclobutyl)(6-(4,5,6,7-tetrahydropyrazolo[1,5-a]pyridin-2-yl)-2-azaspiro[3.4]octan-2-yl)methanone], 1020 nM.
With `Cc1ccc(OC2CCC3(C2)CN(C(=O)[C@H]2C[C@@](C)(O)C2)C3)cc1C1CC1` (mixture of isomers) [Example 332, (rac)-(6-(3-Cyclopropyl-4-methylphenoxy)-2-azaspiro[3.4]octan-2-yl)((1s,3s)-3-hydroxy-3-methylcyclobutyl)methanone], the IC50 came out at 136 nM.
As for `Cc1c(OC2CCC3(C2)CN(C(=O)[C@H]2C[C@@](C)(O)C2)C3)cccc1C1CC1` (mixture of isomers) [Example 333, (rac)-(6-(3-Cyclopropyl-2-methylphenoxy)-2-azaspiro[3.4]octan-2-yl)((1s,3s)-3-hydroxy-3-methylcyclobutyl)methanone], the figure is 37 nM; as for `C[C@]1(O)C[C@@H](C(=O)N2CC3(CCC(Oc4cccc(C5CC5)c4F)C3)C2)C1` (mixture of isomers) [Example 334, (rac)-(6-(3-Cyclopropyl-2-fluorophenoxy)-2-azaspiro[3.4]octan-2-yl)((1s,3s)-3-hydroxy-3-methylcyclobutyl)methanone], 125 nM.
`C[C@]1(O)C[C@@H](C(=O)N2CC3(CCC(Oc4ccc(F)c(C5CC5)c4)C3)C2)C1` (mixture of isomers) [Example 335, (rac)-(6-(3-Cyclopropyl-4-fluorophenoxy)-2-azaspiro[3.4]octan-2-yl)((1s,3s)-3-hydroxy-3-methylcyclobutyl)methanone]: the IC50 came out at 116 nM.
As for `Cc1ccc(OC2CCC3(C2)CN(C(=O)[C@H]2C[C@@](C)(O)C2)C3)nc1C(F)(F)F` (mixture of isomers) [Example 336, (rac)-((1s,3s)-3-Hydroxy-3-methylcyclobutyl)(6-((5-methyl-6-(trifluoromethyl)pyridin-2-yl)oxy)-2-azaspiro[3.4]octan-2-yl)methanone], the figure is 91 nM.
In the case of `CC(C)c1cccc([C@@H]2CCC3(C2)CN(C(=O)[C@H]2C[C@@](C)(O)C2)C3C)c1` (relative stereo) [Example 318, ((1s,3*S)-3-Hydroxy-3-methylcyclobutyl)((6*R)-6-(3-isopropylphenyl)-1-methyl-2-azaspiro[3.4]octan-2-yl)methanone], 48 nM corresponded to half-maximal inhibition (IC50). This IC50 lies about 1.9-fold lower than the previous one.
As for `C[C@@H](c1ccccc1)[C@H]1CCC2(C1)CN(C(=O)[C@H]1C[C@@](C)(O)C1)C2` (relative stereo) [Example 338, ((1s,3*R)-3-Hydroxy-3-methylcyclobutyl)((*S)-6-((*R)-1-phenylethyl)-2-azaspiro[3.4]octan-2-yl)methanone], the figure is 60 nM.
As for `C[C@H](c1ccccc1)[C@H]1CCC2(C1)CN(C(=O)[C@H]1C[C@@](C)(O)C1)C2` (relative stereo) [Example 339, ((1s,3*R)-3-Hydroxy-3-methylcyclobutyl)((*S)-6-((*S)-1-phenylethyl)-2-azaspiro[3.4]octan-2-yl)methanone], the figure is 48 nM; as for `C[C@@H](c1ccccc1)[C@@H]1CCC2(C1)CN(C(=O)[C@H]1C[C@@](C)(O)C1)C2` (single isomer, unassigned) [Example 337, ((1s,3*S)-3-Hydroxy-3-methylcyclobutyl)((*R)-6-((*R)-1-phenylethyl)-2-azaspiro[3.4]octan-2-yl)methanone], 149 nM; as for `COc1cc([C@@H]2CCC3(C2)CN(C(=O)[C@H]2C[C@@](C)(O)C2)C3)ccc1C` (stereo in doubt) [Example 18, ((1s,3*S)-3-Hydroxy-3-methylcyclobutyl)((*R)-6-(3-methoxy-4-methylphenyl)-2-azaspiro[3.4]octan-2-yl)methanone], 64 nM.
As for `COc1cc([C@H]2CCC3(C2)CN(C(=O)[C@H]2C[C@@](C)(O)C2)C3)ccc1C` (stereo in doubt) [Example 19, ((1s,3*R)-3-Hydroxy-3-methylcyclobutyl)((*S)-6-(3-methoxy-4-methylphenyl)-2-azaspiro[3.4]octan-2-yl)methanone], the figure is 67 nM; as for `C[C@]1(O)C[C@@H](C(=O)N2CC3(CC[C@@H](c4cccc(C5CC5)c4F)C3)C2)C1` (stereo in doubt) [Example 25, ((*R)-6-(3-Cyclopropyl-2-fluorophenyl)-2-azaspiro[3.4]octan-2-yl)((1s,3*S)-3-hydroxy-3-methylcyclobutyl)methanone], 4 nM.
Regarding `C[C@]1(O)C[C@@H](C(=O)N2CC3(CC[C@H](c4cccc(C5CC5)c4F)C3)C2)C1` (stereo in doubt) [Example 26, ((*S)-6-(3-Cyclopropyl-2-fluorophenyl)-2-azaspiro[3.4]octan-2-yl)((1s,3*R)-3-hydroxy-3-methylcyclobutyl)methanone], the 50% inhibitory concentration (IC50) stood at 28 nM.
On to `C[C@]1(O)C[C@@H](C(=O)N2CC3(CC[C@@H](c4cccc(OC(F)(F)F)c4)C3)C2)C1` (stereo in doubt) [Example 41, ((1s,3*S)-3-Hydroxy-3-methylcyclobutyl)((*R)-6-(3-(trifluoromethoxy)phenyl)-2-azaspiro[3.4]octan-2-yl)methanone], for which inhibition was half-maximal at 23 nM (IC50). This IC50 and that of the compound before are within 1.5-fold of each other.
As for `C[C@]1(O)C[C@@H](C(=O)N2CC3(CC[C@H](c4cccc(OC(F)(F)F)c4)C3)C2)C1` (stereo in doubt) [Example 42, ((1s,3*R)-3-Hydroxy-3-methylcyclobutyl)((*S)-6-(3-(trifluoromethoxy)phenyl)-2-azaspiro[3.4]octan-2-yl)methanone], the figure is 22 nM.
`CC(C)(C)c1cccc([C@@H]2CCC3(C2)CN(C(=O)[C@H]2C[C@@](C)(O)C2)C3)c1` (stereo in doubt) [Example 44, ((*R)-6-(3-(tert-Butyl)phenyl)-2-azaspiro[3.4]octan-2-yl)((1s,3*S)-3-hydroxy-3-methylcyclobutyl)methanone]: half-maximal inhibition (IC50) required 9.8 nM.
As for `CC(C)(C)c1cccc([C@H]2CCC3(C2)CN(C(=O)[C@H]2C[C@@](C)(O)C2)C3)c1` (stereo in doubt) [Example 45, ((*S)-6-(3-(tert-Butyl)phenyl)-2-azaspiro[3.4]octan-2-yl)((1s,3*R)-3-hydroxy-3-methylcyclobutyl)methanone], the figure is 11 nM; as for `CC(C)c1cccc([C@@H]2CCC3(C2)CN(C(=O)[C@H]2C[C@@](C)(O)C2)C3)c1` (stereo in doubt) [Example 47, ((1s,3*S)-3-Hydroxy-3-methylcyclobutyl)((*R)-6-(3-isopropylphenyl)-2-azaspiro[3.4]octan-2-yl)methanone], 21 nM.
As for `CC(C)c1cccc([C@H]2CCC3(C2)CN(C(=O)[C@H]2C[C@@](C)(O)C2)C3)c1` (stereo in doubt) [Example 48, ((1s,3*R)-3-Hydroxy-3-methylcyclobutyl)((*S)-6-(3-isopropylphenyl)-2-azaspiro[3.4]octan-2-yl)methanone], the figure is 17 nM.
As for `C[C@]1(O)C[C@@H](C(=O)N2CC3(CC[C@@H](c4ccc(OC(F)(F)F)cc4)C3)C2)C1` (stereo in doubt) [Example 53, ((1s,3*S)-3-Hydroxy-3-methylcyclobutyl)((*R)-6-(4-(trifluoromethoxy)phenyl)-2-azaspiro[3.4]octan-2-yl)methanone], the figure is 10 nM; as for `C[C@]1(O)C[C@@H](C(=O)N2CC3(CC[C@H](c4ccc(OC(F)(F)F)cc4)C3)C2)C1` (stereo in doubt) [Example 54, ((1s,3*R)-3-Hydroxy-3-methylcyclobutyl)((*S)-6-(4-(trifluoromethoxy)phenyl)-2-azaspiro[3.4]octan-2-yl)methanone], 10 nM.
Take `C[C@]1(O)C[C@@H](C(=O)N2CC3(CC[C@@H](c4ccc(C(F)(F)F)cc4)C3)C2)C1` (stereo in doubt) [Example 56, ((1s,3*S)-3-Hydroxy-3-methylcyclobutyl)((*R)-6-(4-(trifluoromethyl)phenyl)-2-azaspiro[3.4]octan-2-yl)methanone]: the IC50 came to 22 nM. This IC50 lies about 2.2-fold higher than the previous one.
As for `C[C@]1(O)C[C@@H](C(=O)N2CC3(CC[C@H](c4ccc(C(F)(F)F)cc4)C3)C2)C1` (stereo in doubt) [Example 57, ((1s,3*R)-3-Hydroxy-3-methylcyclobutyl)((*S)-6-(4-(trifluoromethyl)phenyl)-2-azaspiro[3.4]octan-2-yl)methanone], the figure is 24 nM; as for `C[C@]1(O)C[C@@H](C(=O)N2CC3(CC[C@@H](c4cccc(C5CC5)c4)C3)C2)C1` (stereo in doubt) [Example 59, ((*R)-6-(3-Cyclopropylphenyl)-2-azaspiro[3.4]octan-2-yl)((1s,3*S)-3-hydroxy-3-methylcyclobutyl)methanone], 37 nM.
